In patent publication US8029764B2, “Methods for detection of colorectal cancer” (The Johns Hopkins University, priority 2001, dated 2011):

System: colorectal tissue transcripts
Assay: SAGE of normal, adenoma and cancer colorectal tissue (transcript tag counts)
Parameters: species or system human
From the text: In an effort to identify potential molecular markers of early colorectal tumors, we have here analyzed gene expression in benign and malignant colorectal tumors in an unbiased and comprehensive fashion. We used SAGE to analyze global gene expression in normal, benign and malignant colorectal tissue. SAGE is a gene expression profiling method that associates individual mRNA transcripts with 15-base tags derived from specific positions near their 3′ termini (3). The abundance of each tag provides a quantitative measure of the transcript level present within the mRNA population studied. SAGE is not dependent on pre-existing databases of expressed genes, and therefore provides an unbiased view of gene expression profiles. For the current study, SAGE libraries derived from two samples of normal colonic epithelium, two colorectal adenomas, and two colorectal cancers were analyzed.
SAGE. For the initial SAGE^3 of benign tumors, fresh adenomas were obtained from surgical specimens derived from FAP patients. Adenomas from FAP patients were employed because of the ready availability of small lesions and the certainty of inactivation of the APC pathway which initiates the formation of the majority of sporadic tumors. After histopathological verification of the neoplastic nature of the lesion (>70% neoplastic cells), total RNA was isolated by solubilizing the tissue in RNAgents Lysis Buffer (Promega, Madison, Wis.) followed by ultracentrifugation over a cesium chloride gradient. mRNA selection was performed from the purified total RNA using oligo(dT) cellulose (Life Technologies, Gaithersburg, Md.). […] Tags were extracted from the raw sequence data and, after excluding repeated ditags, linker sequences, and tags from the polyrnorphic Major Histocompatibility loci, the resulting tag libraries were compared and statistical analysis performed using SAGE software, version 4.0. Data from the libraries are publicly available at the Uniform Resource Locator (URL) address for the http file type found on the www host server that has a domain name of ncbi.nlm.nih.gov, and a path to the directory SAGE, and detailed SAGE protocols are available at the Uniform Resource Locator (URL) address for the http file type found on the www host server that has a domain name of sagenet.org, and file name of sage_protocol.htn.

[1] = normal colorectal tissue library 1
[2] = normal colorectal tissue library 2

| Sequence | AD1 (SAGE tag count) (SAGE library AD1) | AD2 (SAGE tag count) (SAGE library AD2) | CA1 (SAGE tag count) (SAGE library CA1) | CA2 (SAGE tag count) (SAGE library CA2) | NC1 (SAGE tag count) (SAGE library NC1) | NC2 (SAGE tag count) (SAGE library NC2) | NC2 (SAGE tag count) (SAGE library NC2, major histocompatibility complex, class I, A) | NC2 (SAGE tag count) (SAGE library NC2, major histocompatibility complex, class I, C) | AD1 (SAGE tag count) (adenoma library 1) | AD2 (SAGE tag count) (adenoma library 2) | CA1 (SAGE tag count) (cancer library 1) | CA2 (SAGE tag count) (cancer library 2) | NC1 (SAGE tag count) [1] | NC2 (SAGE tag count) [2] |
| --- | --- | --- | --- | --- | --- | --- | --- | --- | --- | --- | --- | --- | --- | --- |
| AGGATGGTCC (chemistry not fully specified; the letters are possibly those of the target site) | 5 | 3 | 6 | 8 | 34 | 19 |  |  |  |  |  |  |  |  |
| AAGAAGCAGG (chemistry not fully specified; the letters are possibly those of the target site) | 3 | 4 | 1 | 3 | 8 | 16 |  |  |  |  |  |  |  |  |
| CCAAAGCTAT (chemistry not fully specified) | 14 | 12 | 6 | 11 | 42 | 16 |  |  |  |  |  |  |  |  |
| GGGCGCTGTG (chemistry not fully specified) | 3 | 6 | 4 | 5 | 11 | 27 |  |  |  |  |  |  |  |  |
| ACTCTTGTTG (chemistry not fully specified) | 0 | 0 | 0 | 0 | 7 | 2 |  |  |  |  |  |  |  |  |
| CTGGCTATCC (chemistry not fully specified) | 0 | 0 | 0 | 1 | 7 | 3 |  |  |  |  |  |  |  |  |
| GCTTGGGGAT (chemistry not fully specified) | 2 | 0 | 0 | 0 | 11 | 8 |  |  |  |  |  |  |  |  |
| ATATAATCTG (chemistry not fully specified) | 1 | 4 | 5 | 5 | 18 | 14 |  |  |  |  |  |  |  |  |
| GTGCACTGAG (chemistry not fully specified) | 14 | 7 | 12 | 13 | 118 |  | 48 | 45 |  |  |  |  |  |  |
| CCCCCGAAGC (chemistry not fully specified) | 3 | 15 | 4 | 8 | 25 | 27 |  |  |  |  |  |  |  |  |
| TTCCGCGTTC (chemistry not fully specified) |  |  |  |  |  |  |  |  | 0 | 0 | 2 | 2 | 5 | 16 |
| GCACCTGTCG (chemistry not fully specified) | 0 | 0 | 1 | 0 | 2 | 9 |  |  |  |  |  |  |  |  |
| TCGGAGCTGT (chemistry not fully specified) |  |  |  |  |  |  |  |  | 9 | 6 | 3 | 0 | 21 | 20 |
| TGATCTCTGT (chemistry not fully specified) |  |  |  |  |  |  |  |  | 1 | 0 | 1 | 1 | 6 | 7 |
| CCTGTCTGCC (chemistry not fully specified) | 0 | 1 | 1 | 1 | 14 | 22 |  |  |  |  |  |  |  |  |
| GCCGACCAGG (chemistry not fully specified) | 15 | 8 | 19 | 9 | 46 | 47 |  |  |  |  |  |  |  |  |
